Drawing on ChEMBL document CHEMBL1147410, “Binding of an imidazopyridoindole at imidazoline I2 receptors” (Bioorg Med Chem Lett, 2004), this text covers Ki for 10 compounds.

Experiment [1] addresses T1, Adrenergic receptor alpha-2 (Rattus norvegicus, UniProt P22086+P19328+P22909).
T1 sequence (P22086 whole entry): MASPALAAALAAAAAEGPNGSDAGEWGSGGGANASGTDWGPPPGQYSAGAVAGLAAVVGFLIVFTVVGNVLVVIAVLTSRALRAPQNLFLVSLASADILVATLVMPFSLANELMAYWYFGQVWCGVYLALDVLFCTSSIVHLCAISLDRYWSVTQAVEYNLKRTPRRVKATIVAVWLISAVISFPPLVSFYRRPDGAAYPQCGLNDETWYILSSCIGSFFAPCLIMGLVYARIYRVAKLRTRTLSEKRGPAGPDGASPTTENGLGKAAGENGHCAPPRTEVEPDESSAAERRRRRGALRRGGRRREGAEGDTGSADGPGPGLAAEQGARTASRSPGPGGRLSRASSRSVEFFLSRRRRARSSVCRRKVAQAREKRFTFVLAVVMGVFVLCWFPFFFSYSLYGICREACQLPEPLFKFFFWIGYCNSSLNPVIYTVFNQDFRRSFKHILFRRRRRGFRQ
T1 sequence (P19328 whole entry): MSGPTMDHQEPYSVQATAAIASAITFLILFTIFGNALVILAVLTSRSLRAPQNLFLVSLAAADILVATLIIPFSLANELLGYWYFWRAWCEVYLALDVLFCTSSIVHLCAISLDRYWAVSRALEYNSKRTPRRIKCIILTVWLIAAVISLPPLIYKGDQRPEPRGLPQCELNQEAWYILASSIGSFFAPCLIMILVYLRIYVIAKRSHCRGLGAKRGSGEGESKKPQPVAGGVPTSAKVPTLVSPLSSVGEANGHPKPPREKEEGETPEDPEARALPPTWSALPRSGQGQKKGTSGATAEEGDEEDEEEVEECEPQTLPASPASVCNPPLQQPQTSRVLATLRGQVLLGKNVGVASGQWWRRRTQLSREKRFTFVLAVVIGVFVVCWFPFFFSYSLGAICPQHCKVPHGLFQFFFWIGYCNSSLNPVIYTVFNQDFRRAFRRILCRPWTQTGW
T1 sequence (P22909 whole entry): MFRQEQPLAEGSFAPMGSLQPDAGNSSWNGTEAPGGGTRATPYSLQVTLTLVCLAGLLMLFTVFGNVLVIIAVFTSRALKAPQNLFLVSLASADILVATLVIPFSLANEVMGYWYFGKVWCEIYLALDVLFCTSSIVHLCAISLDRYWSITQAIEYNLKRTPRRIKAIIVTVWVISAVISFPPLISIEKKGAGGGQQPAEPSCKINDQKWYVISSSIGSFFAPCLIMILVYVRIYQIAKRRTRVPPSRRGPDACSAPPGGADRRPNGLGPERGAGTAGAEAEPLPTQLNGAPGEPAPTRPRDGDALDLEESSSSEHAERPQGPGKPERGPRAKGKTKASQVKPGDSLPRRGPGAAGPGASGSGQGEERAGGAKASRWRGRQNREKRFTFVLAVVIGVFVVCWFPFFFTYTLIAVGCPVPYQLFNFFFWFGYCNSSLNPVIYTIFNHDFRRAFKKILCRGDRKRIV
The experiment is described as follows: Binding affinity for rat alpha-2 adrenergic receptor from crude P2 membranes.

The nature of experiment [2]: Binding affinity for rat imidazoline I2 receptor from crude P2 membranes.
Experiment [3] is described as follows: Binding affinity for rat imidazoline I2 receptor from crude P2 membranes; 1-5.
Experiment [4] in a line: Binding affinity for rat imidazoline I2 receptor from crude P2 membranes; 350-880.

pKi: −log10 of the molar value.

With `COc1ccc2c3c([nH]c2c1)CNCC3`, the Ki (commonly a measure of affinity in units of concentration, obtained from inhibition or displacement) in experiment [1] is given as 8840 nM.

In turn, `c1ccc2oc(C3=NCCN3)cc2c1` yielded a Ki in experiment [1] of 4000 nM. In addition, the pKi (in general, the negative decadic logarithm of the Ki, by convention in mol/L) in experiment [2] is above 8.00.

In experiment [2], `c1ccc2c(c1)CC(C1=NCCN1)O2` (stereo not drawn) showed a negative-log Ki (pKi) of around 7.30.

In experiment [1], `c1ccc2c3c([nH]c2c1)CNCC3` [TRYPTOLINE] came in with a Ki of 710 nM. In addition, the pKi in experiment [2] is 8.03.

In experiment [2], `c1ccc2c3c([nH]c2c1)C1=NCCN1CC3` showed a pKi of 8.14.

The compound `c1ccc(OCC2=NCCN2)cc1` gave a pKi in experiment [3] of 8.30.

Turning to `c1ccc2oc(-c3ncc[nH]3)cc2c1`, the pKi in experiment [4] is around 6.06.

`c1ccc(CCC2=NCCN2)cc1` [PHENYZOLINE]: in experiment [3], the pKi is 8.30.

`C(=C\c1ccccc1)/C1=NCCN1` [TRACIZOLINE]: the Ki in experiment [1] is 7413 nM. Further, in experiment [2], the pKi is 8.70.

For the compound `c1coc(C2=NCCN2)c1`, the pKi in experiment [2] was 5.63.
